# ChEMBL document CHEMBL3507680, “University of Dundee, Gates Library screen for HepG2 cell viability”
# Test: Human HepG2 cell viability assay in 384 well format
# Type: toxicity, cell-based
# Set-up: dose 125 nL, time 70.5 hour; cytotoxicity at 70.5 h: concentration not given beside the values
# Conditions: HepG2 cells, read-out: Inhibition
row,Compound,cytotoxicity at 70.5 h [%]
1,CN1CCC(N2Cc3nc(N)ncc3C2=O)CC1,-11.6
2,CN1CCN(c2nsc(-c3ccccc3)c2C#N)CC1,-2.35
3,CCn1nc(C)c(CNC(=O)c2nnc3ccccc3n2)c1C,0.73
4,O=C(NCCn1cccn1)c1nnc2ccccc2n1,19.4
5,N#Cc1c(N2CCCCC2)nsc1-c1cccnc1,25
6,CN1CCN(C(=O)c2nnc3ccc(Cl)cc3n2)CC1,-10.9
7,Cc1ccc2nnc(C(=O)NCC3CCCC3)nc2c1,-0.847
8,CC(C)CN1Cc2nc(N3CCCC(C)C3)ncc2C1=O (stereo unspecified),-9.32
9,CNc1ncc2c(n1)CN(CCc1ccc(Cl)cc1)C2=O,-5.88
10,CCN1CCN(c2ncc3c(n2)CN(c2cnn(CC)c2)C3=O)CC1,-6.35
11,CCCN1Cc2nc(N3CCCC3)ncc2C1=O,-5.27
12,COC(=O)C1CCN(C(=O)c2nnc3ccc(C)cc3n2)CC1,-6.57
13,Cc1ccc2nnc(C(=O)NCCCn3cccn3)nc2c1,6.08
14,Cc1nn(C)c(C)c1CN(C)C(=O)c1cc(NC(=O)C2CC2)n(C)n1,-8.63
15,Cn1nc(C(=O)NC2CC(C)(C)NC(C)(C)C2)cc1NC(=O)C1CC1,-8.61
16,Cc1nc2c(N3CCN(CCO)CC3)nc(N)nc2n1C,0.799
17,Cc1nc2c(N(C)Cc3ccnn3C)nc(N)nc2n1C,0.962
18,CCn1nc(C)c(NC(=O)CCn2ncc3cc(C)ccc32)c1C,13.9
19,CN(C)CCNC(=O)CCn1ncc2c(Cl)cccc21,-4.46

row,Compound,cytotoxicity at 70.5 h [%]
1,CCn1cc(CNC(=O)CCn2ncc3c(Cl)cccc32)cn1,17.5
2,Cc1cc(O)nc(C2CN(CC3(O)CCOCC3)CCO2)n1 (stereo unspecified),8.89
3,CC(=O)N[C@@H]1CN(C(=O)c2cnc3ccccc3c2)C[C@H]1O,10.7
4,O=C1CO[C@H]2CN(Cc3cccc(F)c3F)C[C@@H]2N1C1CCOCC1,41.9
5,NC(=O)CN1CCC2(CC1)C[C@@H](O)[C@H](c1ccccc1)NC2=O,-0.832
6,Cc1occc1C(=O)N1CCC2(CCN(Cc3ccccn3)C2=O)C1 (stereo unspecified),5.42
7,Cc1cnc(C(=O)N2CCC3(CCN(Cc4ccccn4)C3=O)C2)cn1 (stereo unspecified),6.84
8,CCC(C)(C)NC(=O)c1ncn2c1CN(C)S(=O)(=O)c1ccccc1-2,20.8
9,Cc1ccc(CN2CCC3(CCC3NC(=O)c3ccn(C)c3)CC2)s1 (stereo unspecified),0.0423
10,Cn1ccc(C(=O)NC2CCC23CCN(Cc2ccc(F)cc2)CC3)c1 (stereo unspecified),-0.822
11,O=C(Nc1cnccn1)[C@@H]1CC[C@@H]2[C@@H](CCN2Cc2nccs2)O1,-4.62
12,Cc1csc(CN2CCC[C@]3(C[C@@H](OCC4CC4)CO3)C2)n1,24.4
13,Cc1ccc(CN2CCn3cc(CNC(=O)c4cnn(C)c4)nc3C2)s1,-102
14,CN1CC(=O)N(c2ccsc2)CC12CCN(S(=O)(=O)c1ccccc1)C2 (stereo unspecified),-109
15,COCCNC(=O)c1cc(-c2cc[nH]n2)n2ccccc12,-117
16,Cn1cccc1C(=O)NCc1cn2c(n1)CN(CC1CCOCC1)CC2,-78.7
17,Cc1cnc(N2CC[C@@H]3O[C@@H](COCC(=O)N(C)C)CC[C@@H]32)nc1,-99.7
18,Cc1cc(C)cc(CN2CCC3(CC2)CC(Nc2ncccn2)CO3)c1 (stereo unspecified),-68.4
19,c1cnc(NC2COC3(CCN(Cc4ccoc4)CC3)C2)nc1 (stereo unspecified),-97.7

row,Compound,cytotoxicity at 70.5 h [%]
1,c1cnc(NCc2nnn3c2CN(Cc2ccco2)CCC3)nc1,-109
2,Cn1cc(C(=O)NCc2cn3c(n2)CN(C2CCOCC2)CC3)cn1,-109
3,C1CC(CO[C@@H]2CC[C@H]3[C@H]2OCCN3CC2CCOCC2)CCO1,-81.4
4,Cc1nc[nH]c1CN1CCC2(CC1)CC(Nc1ncccn1)CO2 (stereo unspecified),-94.8
5,O=C(Nc1cnccn1)[C@@H]1COC[C@H]2CN(C3CCC3)C[C@H]21,-87.9
6,CCO[C@@H]1CC[C@H]2[C@H]1OCCN2CC1CCOCC1,38.8
7,CN(C)C(=O)COC[C@@H]1CC[C@H]2[C@H](CCN2c2ccccn2)O1,44.1
8,COCC1CN(Cc2ccoc2)Cc2nn(CC3CC3)cc21 (stereo unspecified),18.3
9,CCC(C)N1CCC2(CC1)CN(c1cncnc1)C(=O)CO2 (stereo unspecified),-15.3
10,CN(C)C(=O)CC1CC2(CCN(Cc3cccs3)CC2)c2ccccc21 (stereo unspecified),-20
11,CCN1CC2(CC1=O)CN(Cc1cnn(C)c1)CCN(C(=O)N(C)C)C2 (stereo unspecified),9.62
12,O=C1COC2(CCN(Cc3ccsc3)CC2)CN1,-4.53
13,COc1ccccc1CN1C[C@@H]2COC[C@]2(COc2cccnc2)C1,-116
14,c1csc(CN2C[C@@H]3COC[C@]3(COCc3ccncc3)C2)c1,28.4
15,Cc1cccc(C(=O)N2C[C@@H](OCc3ccncc3)[C@@H]3OCCC[C@@H]32)n1,-12.5
16,Cc1cccc(CN2C[C@@H]3COC[C@]3(COc3cccnc3)C2)n1,-120
17,CN(C)Cc1nnn2c1CN(Cc1cccnc1)CCC2,-83.6
18,Cc1ccc(CN(CCCN2CCOCC2)Cc2cncn2C)o1,-4.09
